Assay results from patent publication US20220096505A1, “PHARMACEUTICAL COMPOSITION, METHODS FOR TREATING AND USES THEREOF” (Boehringer Ingelheim International GmbH, priority 2011, published 2022).

What was measured:
[1] = Particle size distribution measurement by laser diffraction; format: physicochemical; settings: milled active substance
From the text: The value X90 refers to the 90% value of the volume distribution measured using a laser diffractometer. In other words, for the purposes of the present invention, the X90 value denotes the particle size below which 90% of the quantity of particles is found based on the volume distribution. Analogously the value X50 refers to the 50% value (median) of the volume distribution measured using a laser diffractometer. In other words, for the purposes of the present invention, the X50 value denotes the particle size below which 50% of the quantity of particles is found based on the volume distribution. Analogously the value X10 refers to the 10% value of the volume distribution measured using a laser diffractometer. In other words, for the purposes of the present invention, the X10 value denotes the particle size below which 10% of the quantity of particles is found based on the volume distribution.
Preferably all X90, X50, X10 values hereinbefore and hereinafter are by volume and determined by laser-diffraction method, in particular low angle laser light scattering, i.e. Fraunhofer diffraction. A preferred test is described in the experimental section. The laser diffraction method is sensitive to the volume of a particle and provides a volume-average particle size, which is equivalent to the weight-average particle size if the density is constant. The skilled artesian knows that the results of the particle size distribution determination by one technique can be correlated with that from another technique, for example on an empirical basis by routine experimentation. Alternatively the particle size distribution in the pharmaceutical composition or dosage form can be determined by microscopy, in particular electron microscopy or scanning electron microscopy.
Examples of typical particle size distribution values X90, X50 and X10 for the preferred active pharmaceutical ingredient according to the invention are shown in the table below.
3. Particle Size Distribution Measurement by Laser Diffraction
Particle size distribution measurement is performed for example via light scattering or laser diffraction technique. To determine the particle size the powder is fed into a laser diffraction spectrometer for example by means of a dispersing unit. The test method is described below in detail:
Equipment: Laser Diffraction Spectrometer Sympatec HELOS Particle Sizer.
Lens: R31 (0.5/0.9 μm-175 μm) Sample Dispersing Unit: Dry disperser RODOS/M
Feed Velocity: 60.00 mm/s Primary pressure: 2.00 bar Injector depression: maximize (mbar)2 Reference Measurement: 10 seconds Cycle Time: 100 msec Trigger Conditions: Start 0.0 seconds after optical concentration ≥1% valid always Stop after 5.0 seconds optical concentration ≤1% or after 30 seconds real time Optical Concentration: Approximately range 3-12%
Number of measurements: 2 (duplicate)
The instrument is set up according to the manufacturer's recommendation and using the manufacturer provided software. The sample container is thoroughly mixed and tumbled prior to removing a portion of the sample to ensure that a representative sample is tested. Duplicate samples are prepared by using a spatula to transfer approximately 100 mg of a sample into the ASPIROS glass vials and cap the vials. The capped cials are placed into the feeder.

[2] = in vivo; cited from earlier work
[3] = metformin on its own, in the diabetic; cited from earlier work
[4] = listed as Active substance Batch 1
[5] = listed as Active substance Batch 2

For “1-chloro-4-(β-D-glucopyranos-1-yl)-2-[4-((S)-tetrahydrofuran-3-yloxy)-benzyl]-benzene [compound (I.9)]”, which “X10 (10% value of the volume distribution, particle size)” value [1, 4] is on record?
Its value is 1.8 μm.

And the “X50 (50% value, median, of the volume distribution, particle size)” value [1, 4]?
Its value is 18.9 μm.

What about the “X90 (90% value of the volume distribution, particle size)” value [1, 4] of the same molecule?
Its value is 45.3 μm.

And the “X10 (10% value of the volume distribution, particle size)” value [1, 5]?
The value was 1.7 μm.

What about the “X50 (50% value, median, of the volume distribution, particle size)” value [1, 5] of the same molecule?
The value was 12.1 μm.

What about the “X90 (90% value of the volume distribution, particle size)” value [1, 5] of the same molecule?
Its value is 25.9 μm.

For `CC#CCn1c(N2CCC[C@@H](N)C2)nc2c1c(=O)n(Cc1nc(C)c3ccccc3n1)c(=O)n2C` [linagliptin], which route of excretion [2] is on record?
The route of excretion was “primarily excreted by bile and the gut”.

With `CN(C)C(=N)N=C(N)N` [metformin] as the molecule, how does the “average improvement in the HbA1c value” [3] read?
Its value is 1.0-1.5%.
